pIC50: −log10 of the molar value.
What was measured:
B16 [1] = assay: Inhibition of melanin production in alpha-MSH stimulated mouse B16 cells after 72 hrs by spectrophotometry; type: functional, cell-based; details: for pIC50: B16, 72 h
B16 [2] = assay: Cytotoxicity against alpha-MSH stimulated mouse B16 cells after 72 hrs by MTT assay; type: cell-based; details: B16, 72 h

Structure (SMILES) | pIC50 (B16 [1]) | pIC50 (B16 [2]) | inhibition (B16 [1])
OC[C@H]1O[C@@H](Oc2ccc(O)cc2)[C@H](O)[C@@H](O)[C@@H]1O [ARBUTIN] | 3.85 | – | –
C=C(C)[C@]12C[C@@H](C)[C@@]34OC(c5ccccc5)(O[C@@H]1[C@@H]3[C@H](O)[C@](O)(COC(=O)c1ccccc1)[C@@H](O)[C@@]1(O)[C@H]4C[C@H](C)[C@@H]1O)O2 | 5.70 | < 4.52 | Dose-dependent effect
C=C(C)[C@@]12O[C@@]3(/C=C/C=C/CCCCC)O[C@@H]1[C@@H]1[C@@H]4O[C@]4(CO)[C@@H](O)[C@]4(O)C(=O)C(C)=C[C@H]4[C@@]1(O3)[C@H](C)[C@H]2OC(C)=O [YUANHUADINE] | 7.22 | 4.66 | Dose-dependent effect
C=C(C)[C@@]12O[C@@]3(/C=C/C=C/CCCCC)O[C@@H]1[C@@H]1[C@@H]4O[C@]4(CO)[C@@H](O)[C@]4(O)C(=O)C(C)=C[C@H]4[C@@]1(O3)[C@H](C)[C@H]2OC(=O)c1ccccc1 [GNIDILATIDIN] | 6.80 | < 4.52 | Dose-dependent effect
C=C(C)[C@@]12OC3(C)O[C@@H]1[C@@H]1C=C(CO)C[C@]4(O)C(=O)C(C)=C[C@H]4[C@@]1(O3)[C@H](C)[C@H]2OC(=O)c1ccccc1 | 5.64 | 5.18 | –
C=C(C)[C@@]12OC3(/C=C/C=C/CCCCC)O[C@@H]1[C@@H]1[C@@H]4O[C@]4(CO)[C@@H](O)[C@]4(O)C(=O)C(C)=C[C@H]4[C@@]1(O3)[C@H](C)[C@H]2OC(=O)CC | 6.72 | 4.55 | Dose-dependent effect
C=C(C)[C@]12C[C@@H](C)[C@@]34OC(c5ccccc5)(O[C@@H]1[C@@H]3[C@H](O)[C@](O)(CO)[C@@H](O)[C@@]1(O)[C@H]4C[C@H](C)[C@@H]1O)O2 | 5.05 | < 4.52 | Dose-dependent effect
C=C(C)[C@@]12OCO[C@@H]1[C@@H]1[C@@H]3O[C@]3(CO)[C@@H](O)[C@]3(O)C(=O)C(C)=C[C@H]3[C@@]1(Oc1ccccc1)[C@H](C)[C@H]2OC(=O)c1ccccc1 [GENKWADAPHNIN] | 6.74 | < 4.52 | Dose-dependent effect
C=C(C)[C@]12C[C@@H](C)[C@@]34OC(c5ccccc5)(O[C@@H]1[C@@H]3[C@H](O)[C@](O)(COC(=O)/C=C/C=C/CCCCC)[C@@H](O)[C@@]1(O)[C@H]4C[C@H](C)[C@@H]1O)O2 | 6.24 | < 4.52 | Dose-dependent effect
C=C(C)[C@@]12OC3(C)O[C@@H]1[C@@H]1C=C(CO)C[C@]4(O)C(=O)C(C)=C[C@H]4[C@@]1(O3)[C@H](C)[C@H]2OC(C)=O | 5.31 | < 4.52 | Dose-dependent effect

Source: ChEMBL document CHEMBL2385014, “Melanogenesis inhibitory daphnane diterpenoids from the flower buds of Daphne genkwa” (Bioorg Med Chem Lett, 2013)
